Earlier results on two compounds are cited in patent US20030032669A1, “Pesticidal compositions and their use as protecting agents” (priority 2000, published 2003).

For series [1] the following is noted: alcohols, ketones and toluene.
Series [2] has as its system adult grain weevils Sitophilus granarius. Conditions: wheat treated with 1 μg/g; after 50 days.
For series [3] the following is noted: aqueous solutions at 50° C.
In series [4] the test system is larvae of German cockroach Blatella germanica. The conditions noted are these: exposure to 100 ng/cm^2; after 3 weeks.

For the compound `O=C(NC(=O)c1c(F)cccc1F)Nc1ccc(Oc2ccc(C(F)(F)F)cc2Cl)cc1F` [flufenoxuron, 1-[4-(2-chloro-trifluoro-p-tolyloxy)-2-fluorophenyl]-3-(2,6-difluorobenzoyl)urea], the degradation in soil result is reported as “rapidly degraded”. The phyto-toxicity result in the series on plants is reported as “no recorded phyto-toxicity”.

As for `CCOC(=O)NCCOc1ccc(Oc2ccccc2)cc1` [fenoxycarb, ethyl 2-(4-phenoxyphenoxy)ethylcarbamate], the degradation in soil result is on record as “rapidly degraded”. Moreover, the “solubility in organic solvents” value in series [1] was “very soluble”. The “reduction of population of adult grain weevils” value in series [2] is reported as 100%. Also, the stability to hydrolysis result in series [3] was “stable to hydrolysis”. In addition, in series [4], the “reduction of population of larvae of German cockroach” value is given as 90%.
